According to EP4786464A1, “COMPOUND AS GLUTAMINE CYCLASE INHIBITOR” (Simcere Pharmaceutical Co., Ltd., priority 2023, dated 2025):

Key:
[1] = Metabolic stability in liver microsomes (human); type: in vitro ADME; settings: pH 7.4; human liver microsomes 0.5 mg/mL, 1 µM compound, 1 mM NADPH; read-out: Half-life (t1/2, min) (human)
Method: (§1) The experimental procedures were as follows: 1. […] 2. Preparation of reaction system The reaction system was prepared as follows:
(§2) 3. The reaction system was pre-incubated in a 37 °C water bath for 10 min. 20 µL of 10 mM NADPH solution (NADPH was dissolved by 100 mM phosphate-buffered saline) was added to the reaction system with a final concentration of NADPH being 1 mM. 20 µL phosphate-buffered saline was used instead of the NADPH solution to serve as the negative control. The negative control was used to exclude the effect of chemical stability of the compound itself. 4. The reaction was initiated by adding 2 µL of 100 µM compound of the present disclosure and verapamil, the positive control compound, to the reaction system with a final concentration of the compound being 1 µM. 5.
(§3) All data were calculated using Microsoft Excel software. The peak area was obtained by extracting an ion chromatogram.

[2] = Metabolic stability in liver microsomes (mouse); type: in vitro ADME; settings: pH 7.4; mouse liver microsomes 0.5 mg/mL, 1 µM compound, 1 mM NADPH; read-out: Half-life (t1/2, min) (mouse)
Method: as §1, §2, §3

CYP2D6 = molecular target: T1, CYP2D6 (Homo sapiens, UniProt P10635); experiment: Inhibition of CYP2D6 enzyme activity in liver microsomes; type: in vitro ADME; settings: substrate dextromethorphan, 15 min
T1 construct: 1 µL of 20 mg/mL liver microsome solution; from tissue; host or cells: liver microsomes

CYP2C9 = molecular target: T2, CYP2C9 (Homo sapiens, UniProt P11712); experiment: Inhibition of CYP2C9 enzyme activity in liver microsomes; type: in vitro ADME; settings: substrate diclofenac, 15 min
T2 construct: 1 µL of 20 mg/mL liver microsome solution; from tissue; host or cells: liver microsomes

human QPCT = molecular target: T3, human QPCT (Homo sapiens, UniProt Q16769); experiment: Inhibition of human QPCT enzyme activity (SensoLyte Green Glutaminyl Cyclase Activity Assay Kit); type: biochemical; settings: fluorescence Ex/Em = 490 nm/520 nm
T3 construct: purchased Anaspec AS-72230
Method: (§4) The inhibition of human QPCT/QPCTL enzyme activity by the compounds was assessed using SensoLyte® Green Glutaminyl Cyclase Activity Assay Kit.
(§5) The working solutions of the test compounds were serially 6-fold diluted from an initial concentration of 200 µM to 7 concentration points in total. In the 75 µL reaction system, the initial working concentration of the test compound was 13.3 µM, and the final concentration of DMSO was 0.3%. 20 µL of prepared QPCT enzyme solution, 5 µL of test compound, and 25 µL of QPCT enzyme substrate were successively added to each well of a 384-well plate. The mixture was shaken on a microplate shaker for 1 min, centrifuged at 400 g for 1 min, and incubated at 37 °C for 30 min. Then, 25 µL of QPCT developer was added to each well, and the mixture was sufficiently mixed using a shaker for 1 min, centrifuged at 400 g for 1 min, and incubated at 37 °C for another 60 min. After the incubation was completed, the fluorescence values were read using a microplate reader, with parameter settings as follows: Ex/Em = 490 nm/520 nm. […] Curves were plotted using GraphPad Prism 9 software with the compound concentration (nM) as the abscissa and the enzyme activity inhibition rate (%) as the ordinate. Four-parameter fitting was performed, and the IC50 values for the inhibition of the QPCT enzyme activity by the compounds were calculated.

human QPCTL = molecular target: T4, human QPCTL (Homo sapiens, UniProt Q9NXS2); experiment: Inhibition of human QPCTL enzyme activity (adjusted SensoLyte Green Glutaminyl Cyclase Activity Assay Kit); type: biochemical; settings: human QPCTL enzyme (Sino Biological)
T4 construct: purchased Sino Biological NXS6-1
Method: as §4
as §5, with “0.5 mM QPCT enzyme substrate was diluted to 5 µM with a buffer at a ratio of 1:100; 50 µg/mL QPCT enzyme was diluted to 125 ng/mL with a buffer and placed on ice for later use; QPCT developer was diluted with a buffer at a ratio of 1:250 and placed on ice for later use (the QPCT enzyme substrate, the QPCT enzyme, the buffer, and the QPCT developer were all from the kit). The working” for “The working”
The SensoLyte® Green Glutaminyl Cyclase Activity Assay Kit was appropriately adjusted by replacing the QPCT enzyme in it with human QPCTL enzyme (Sino Biological, Cat. No. NXS6-1) (the concentration of the working solution was kept unchanged) for determining the IC50 values for the inhibition of human QPCTL enzyme activity by compounds. […]

CYP3A4 = molecular target: T5, CYP3A4 (Homo sapiens, UniProt P08684); experiment: Inhibition of CYP3A4 enzyme activity in liver microsomes; type: in vitro ADME; settings: substrate midazolam, 15 min
T5 construct: 1 µL of 20 mg/mL liver microsome solution; from tissue; host or cells: liver microsomes
T5 sequence (P08684 whole entry): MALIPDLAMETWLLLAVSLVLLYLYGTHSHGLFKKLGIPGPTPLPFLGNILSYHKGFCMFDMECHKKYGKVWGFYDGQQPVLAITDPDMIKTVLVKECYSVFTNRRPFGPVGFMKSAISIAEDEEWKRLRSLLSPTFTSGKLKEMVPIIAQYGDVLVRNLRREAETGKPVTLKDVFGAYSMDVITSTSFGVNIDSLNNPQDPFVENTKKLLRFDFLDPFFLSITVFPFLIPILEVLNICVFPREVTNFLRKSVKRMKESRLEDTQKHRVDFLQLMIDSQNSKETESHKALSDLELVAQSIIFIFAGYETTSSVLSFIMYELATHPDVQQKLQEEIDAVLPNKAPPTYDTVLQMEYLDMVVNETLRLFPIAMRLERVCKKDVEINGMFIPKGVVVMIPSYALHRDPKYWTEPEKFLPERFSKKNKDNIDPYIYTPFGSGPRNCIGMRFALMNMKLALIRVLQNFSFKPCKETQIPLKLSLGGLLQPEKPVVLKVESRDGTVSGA

T4 sequence (Q9NXS2 whole entry): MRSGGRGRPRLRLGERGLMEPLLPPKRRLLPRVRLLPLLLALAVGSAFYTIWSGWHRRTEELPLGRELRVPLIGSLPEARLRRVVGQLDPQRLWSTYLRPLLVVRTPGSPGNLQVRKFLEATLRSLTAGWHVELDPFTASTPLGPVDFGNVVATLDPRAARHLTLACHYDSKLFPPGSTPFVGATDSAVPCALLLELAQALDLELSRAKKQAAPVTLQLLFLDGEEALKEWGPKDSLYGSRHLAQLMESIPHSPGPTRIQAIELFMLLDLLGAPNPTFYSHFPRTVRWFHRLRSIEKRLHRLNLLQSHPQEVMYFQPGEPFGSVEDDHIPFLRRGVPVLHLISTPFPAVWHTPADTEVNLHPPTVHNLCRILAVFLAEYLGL
T3 sequence (Q16769 29-361): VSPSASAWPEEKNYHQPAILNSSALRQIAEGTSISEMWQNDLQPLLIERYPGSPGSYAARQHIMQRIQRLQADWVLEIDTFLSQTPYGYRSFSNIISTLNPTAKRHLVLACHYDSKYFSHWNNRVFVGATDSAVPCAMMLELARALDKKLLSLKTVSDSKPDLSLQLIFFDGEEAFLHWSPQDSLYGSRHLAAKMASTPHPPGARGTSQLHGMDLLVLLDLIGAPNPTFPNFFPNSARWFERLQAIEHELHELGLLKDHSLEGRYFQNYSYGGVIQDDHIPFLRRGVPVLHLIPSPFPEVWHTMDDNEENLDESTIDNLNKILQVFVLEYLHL
T2 sequence (P11712 whole entry): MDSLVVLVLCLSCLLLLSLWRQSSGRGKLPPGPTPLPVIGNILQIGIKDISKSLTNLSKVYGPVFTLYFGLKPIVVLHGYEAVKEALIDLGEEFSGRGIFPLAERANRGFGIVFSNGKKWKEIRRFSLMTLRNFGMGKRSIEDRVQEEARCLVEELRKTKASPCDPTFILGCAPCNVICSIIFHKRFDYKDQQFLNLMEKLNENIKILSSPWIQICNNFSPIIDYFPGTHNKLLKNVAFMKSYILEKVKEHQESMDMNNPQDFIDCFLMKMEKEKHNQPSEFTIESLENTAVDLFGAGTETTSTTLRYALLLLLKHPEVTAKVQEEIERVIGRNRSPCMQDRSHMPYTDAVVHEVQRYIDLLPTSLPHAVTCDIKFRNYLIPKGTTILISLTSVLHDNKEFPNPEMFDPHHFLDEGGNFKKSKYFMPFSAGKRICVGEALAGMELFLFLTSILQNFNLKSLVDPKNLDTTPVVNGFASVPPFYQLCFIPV
T1 sequence (P10635 whole entry): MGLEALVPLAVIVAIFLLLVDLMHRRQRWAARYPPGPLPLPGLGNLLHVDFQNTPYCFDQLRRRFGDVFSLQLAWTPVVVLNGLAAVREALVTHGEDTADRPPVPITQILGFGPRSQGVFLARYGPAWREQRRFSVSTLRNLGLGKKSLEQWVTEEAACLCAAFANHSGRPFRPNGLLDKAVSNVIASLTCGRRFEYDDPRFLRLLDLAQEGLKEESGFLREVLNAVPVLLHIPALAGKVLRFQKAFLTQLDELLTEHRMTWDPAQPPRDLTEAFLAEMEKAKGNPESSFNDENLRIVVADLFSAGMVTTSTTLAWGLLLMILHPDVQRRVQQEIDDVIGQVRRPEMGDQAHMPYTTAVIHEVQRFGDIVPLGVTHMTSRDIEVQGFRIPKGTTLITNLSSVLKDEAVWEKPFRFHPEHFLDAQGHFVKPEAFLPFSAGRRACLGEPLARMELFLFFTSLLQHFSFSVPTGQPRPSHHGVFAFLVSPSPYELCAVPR

SMILES | IC50 (human QPCT) | also measured
O=C1C[C@H](C23CC(N4CCOCC4)(C2)C3)N1c1ccc2[nH]cnc2c1 [Compound 7] | 36.8 nM | half-life at 1 µM [1]: 316 min; half-life at 1 µM [2]: 325 min; IC50 (CYP2D6): > 50 µM; IC50 (CYP2C9): > 50 µM; IC50 (human QPCTL): 25.1 nM; IC50 (CYP3A4): > 50 µM
O=C1C[C@H](C23CC(CF)(C2)C3)N1c1ccc2nc[nH]c2c1 [Compound 10] | 58.9 nM | 
O=C1C[C@H](C23CC(F)(C2)C3)N1c1ccc2[nH]cnc2c1 [Compound 2] | 170 nM | 
N#Cc1ccc(C23CC([C@H]4CC(=O)N4c4ccc5[nH]cnc5c4)(C2)C3)cc1 [Compound 6] | 19.1 nM | 
O=C1C[C@H](C23CC(c4ccc(F)cc4)(C2)C3)N1c1ccc2[nH]cnc2c1 [Compound 4] | 10.7 nM | IC50 (human QPCTL): 3.9 nM
CCCOC12CC([C@H]3CC(=O)N3c3ccc4[nH]cnc4c3)(C1)C2 [Compound 3] | 52.4 nM | IC50 (human QPCTL): 6.5 nM
O=C1C[C@H](C23CC(Cl)(C2)C3)N1c1ccc2[nH]cnc2c1 [Compound 13] | 73.2 nM | 
CC12CC([C@H]3CC(=O)N3c3ccc4nc[nH]c4c3)(C1)C2 [Compound 9] | 37.3 nM | 
COC12CC([C@H]3CC(=O)N3c3ccc4[nH]cnc4c3)(C1)C2 [Compound 8] | 166 nM | 
O=C1C[C@H](C23CC(c4ccncc4)(C2)C3)N1c1ccc2[nH]cnc2c1 [Compound 5] | 8.5 nM | 
[2H][C@]1(C23CC(C2)C3)CC(=O)N1c1ccc2[nH]cnc2c1 [Compound 11] | 42.5 nM | 
